# Laboratory results from patent US20130303509A1, “NAMPT INHIBITORS” (AbbVie Inc., priority 2012, published 2013).
# Tested on: PC3 cells
# Test: NAMPT Cell Proliferation Assay
# Format: cell-based
# Conditions: Homo sapiens, PC-3, 120 h, 5 days incubation, cell viability by Cell Titer Glo
# Procedure, shortened: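 Five-day CellTiter-Glo viability readout in PC3 cells grown in RPMI/10% heat-inactivated FBS. Compounds added after overnight attachment as a 10-fold dilution series, […]. Percent inhibition fitted to sigmoidal dose-response to derive IC50.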
row,Compound,IC50 [nM]
1,"CC(=O)N[C@@H](CC(C)C)C(=O)N1CCC(c2ccc(NC(=O)C3CN(c4cccnn4)C3)cc2)CC1 [Example 385, N-{4-[1-(N-acetyl-L-leucyl)piperidin-4-yl]phenyl}-1-(pyridazin-3-yl)azetidine-3-carboxamide]",23.2
2,"Cc1cc(C)cc(C(=O)N2CCC(c3ccc(NC(=O)[C@H]4CCN(c5cccnn5)C4)cc3)CC2)c1 [Example 693, (3S)-N-{4-[1-(3,5-dimethylbenzoyl)piperidin-4-yl]phenyl}-1-(pyridazin-3-yl)pyrrolidine-3-carboxamide]",13.6
3,"O=C(Nc1ccc(OC2CCN(C(=O)c3ccc(F)cc3)CC2)cc1)C1CN(c2ccnnc2)C1 [Example 271, N-(4-{[1-(4-fluorobenzoyl)piperidin-4-yl]oxy}phenyl)-1-(pyridazin-4-yl)azetidine-3-carboxamide]",51.5
4,"O=C(Nc1ccc(C2CCN(C(=O)Cc3cccc4ccccc34)CC2)cc1)[C@H]1CCN(c2cccnn2)C1 [Example 641, (3S)-N-{4-[1-(naphthalen-1-ylacetyl)piperidin-4-yl]phenyl}-1-(pyridazin-3-yl)pyrrolidine-3-carboxamide]",72.6
5,"O=C(N[C@H]1CCN(c2cccnn2)C1)c1ccc(C2CCN(C(=O)C3CCOCC3)CC2)s1 [Example 758, N-[(3S)-1-(pyridazin-3-yl)pyrrolidin-3-yl]-5-[1-(tetrahydro-2H-pyran-4-ylcarbonyl)piperidin-4-yl]thiophene-2-carboxamide]",857
6,"CC(C)CC(=O)N1CCC(Oc2ccc(NC(=O)C3CN(c4cccnn4)C3)cc2)CC1 [Example 225, N-(4-{[1-(3-methylbutanoyl)piperidin-4-yl]oxy}phenyl)-1-(pyridazin-3-yl)azetidine-3-carboxamide]",8.76
7,"CC[C@H](C)C(=O)N1CCC(Oc2ccc(NC(=O)[C@H]3CCN(c4cccnc4)C3)cc2)CC1 [Example 19, (3S)-N-[4-({1-[(2S)-2-methylbutanoyl]piperidin-4-yl}oxy)phenyl]-1-(pyridin-3-yl)pyrrolidine-3-carboxamide]",56.4
8,"Cc1ncccc1N1CC(C(=O)Nc2ccc(C3CCN(C(=O)CCC(C)C)CC3)cc2)C1 [Example 176, N-{4-[1-(4-methylpentanoyl)piperidin-4-yl]phenyl}-1-(2-methylpyridin-3-yl)azetidine-3-carboxamide]",218
9,"CC[C@H](C)C(=O)N1CCC(Oc2ccc(C(=O)NC3CN(c4cccnc4)C3)cc2)CC1 [Example 23, 4-({1-[(2S)-2-methylbutanoyl]piperidin-4-yl}oxy)-N-[1-(pyridin-3-yl)azetidin-3-yl]benzamide]",72.5
10,"O=C(Nc1ccc(OC2CN(C(=O)CC(F)(F)F)C2)cc1)C1CN(c2ccnnc2)C1 [Example 258, 1-(pyridazin-4-yl)-N-(4-{[1-(3,3,3-trifluoropropanoyl)azetidin-3-yl]oxy}phenyl)azetidine-3-carboxamide]",309
11,"O=C(Nc1ccc(OC2CCN(C(=O)Cc3cccc(C(F)(F)F)c3)CC2)cc1)C1CN(c2cccnn2)C1 [Example 240, 1-(pyridazin-3-yl)-N-{4-[(1-{[3-(trifluoromethyl)phenyl]acetyl}piperidin-4-yl)oxy]phenyl}azetidine-3-carboxamide]",10.3
12,"Cc1ccc(C(=O)N2CC[C@@H](Oc3ccc(NC(=O)C4CN(c5ccnnc5)C4)cc3)C2)s1 [Example 458, N-[4-({(3R)-1-[(5-methylthiophen-2-yl)carbonyl]pyrrolidin-3-yl}oxy)phenyl]-1-(pyridazin-4-yl)azetidine-3-carboxamide]",64.4
13,"CCCC(=O)N1CCC(c2ccc(NC(=O)C3CN(c4cccnc4C)C3)cc2)CC1 [Example 194, N-[4-(1-butanoylpiperidin-4-yl)phenyl]-1-(2-methylpyridin-3-yl)azetidine-3-carboxamide]",124
14,"O=C(Nc1ccc(OC2CCN(C(=O)c3ccccc3Cl)CC2)cc1)C1CN(c2ccnnc2)C1 [Example 279, N-(4-{[1-(2-chlorobenzoyl)piperidin-4-yl]oxy}phenyl)-1-(pyridazin-4-yl)azetidine-3-carboxamide]",9.72
15,"CCC(C)(C)CN1CCC(Oc2ccc(NC(=O)C3CN(c4cccnc4)C3)cc2)CC1 [Example 84, N-(4-{[1-(2,2-dimethylbutyl)piperidin-4-yl]oxy}phenyl)-1-(pyridin-3-yl)azetidine-3-carboxamide]",38.9
16,"CC(C)CC(=O)N1CC[C@@H](Oc2ccc(NC(=O)C3CN(c4ccnnc4)C3)cc2)C1 [Example 478, N-(4-{[(3R)-1-(3-methylbutanoyl)pyrrolidin-3-yl]oxy}phenyl)-1-(pyridazin-4-yl)azetidine-3-carboxamide]",14.3
17,"O=C(Nc1ccc(S(=O)(=O)C2CCN(C(=O)c3ccc(Cl)cc3Cl)CC2)cc1)C1CN(c2cccnn2)C1 [Example 590, N-(4-{[1-(2,4-dichlorobenzoyl)piperidin-4-yl]sulfonyl}phenyl)-1-(pyridazin-3-yl)azetidine-3-carboxamide]",82.2
18,"Cc1ncccc1N1CC(C(=O)Nc2ccc(C3CCN(C(=O)C4CC4C)CC3)cc2)C1 (stereo not shown) [Example 163, N-(4-{1-[(2-methylcyclopropyl)carbonyl]piperidin-4-yl}phenyl)-1-(2-methylpyridin-3-yl)azetidine-3-carboxamide]",120
19,"Cc1ncccc1N1CC(C(=O)Nc2ccc(C3CCN(C(=O)C(C)(C)C)CC3)cc2)C1 [Example 185, N-{4-[1-(2,2-dimethylpropanoyl)piperidin-4-yl]phenyl}-1-(2-methylpyridin-3-yl)azetidine-3-carboxamide]",74.2

# Now those with a lower IC50, led by results:
row,IC50 [nM],Compound
1,8.46,"O=C(Nc1ccc(C2CCN(C(=O)CC3CC3)CC2)cc1)[C@H]1CCN(c2cccnn2)C1 [Example 643, (3S)-N-{4-[1-(cyclopropylacetyl)piperidin-4-yl]phenyl}-1-(pyridazin-3-yl)pyrrolidine-3-carboxamide]"
2,8.41,"O=C(N[C@H]1CCN(c2cccnn2)C1)c1ccc(C2CCN(C(=O)c3ccccc3F)CC2)s1 [Example 763, 5-[1-(2-fluorobenzoyl)piperidin-4-yl]-N-[(3S)-1-(pyridazin-3-yl)pyrrolidin-3-yl]thiophene-2-carboxamide]"
3,6.75,"O=C(Nc1ccc(C2CCN(C(=O)Cc3ccc(Cl)cc3Cl)CC2)cc1)C1CN(c2cccnn2)C1 [Example 405, N-(4-{1-[(2,4-dichlorophenyl)acetyl]piperidin-4-yl}phenyl)-1-(pyridazin-3-yl)azetidine-3-carboxamide]"
4,6.16,"O=C(Nc1ccc(C2CCN(C(=O)c3cc(Cl)ccc3Cl)CC2)cc1)[C@H]1CCN(c2cccnn2)C1 [Example 695, (3S)-N-{4-[1-(2,5-dichlorobenzoyl)piperidin-4-yl]phenyl}-1-(pyridazin-3-yl)pyrrolidine-3-carboxamide]"
5,5.65,"O=C(Nc1ccc(O[C@@H]2CCN(C(=O)c3nccs3)C2)cc1)C1CN(c2ccnnc2)C1 [Example 443, 1-(pyridazin-4-yl)-N-(4-{[(3R)-1-(1,3-thiazol-2-ylcarbonyl)pyrrolidin-3-yl]oxy}phenyl)azetidine-3-carboxamide]"
6,4.53,"O=C(Nc1ccc(OC2CCN(C(=O)Cc3cccc(F)c3)CC2)cc1)C1CN(c2cccnn2)C1 [Example 227, N-[4-({1-[(3-fluorophenyl)acetyl]piperidin-4-yl}oxy)phenyl]-1-(pyridazin-3-yl)azetidine-3-carboxamide]"
7,4.1,"O=C(Nc1ccc(C2CCN(C(=O)Cc3cccc(C(F)(F)F)c3)CC2)cc1)C1CN(c2cccnn2)C1 [Example 403, 1-(pyridazin-3-yl)-N-[4-(1-{[3-(trifluoromethyl)phenyl]acetyl}piperidin-4-yl)phenyl]azetidine-3-carboxamide]"
8,3.51,"CC(C)(C)CC(=O)N1CCC(c2ccc(NC(=O)[C@H]3CCN(c4cccnn4)C3)cc2)CC1 [Example 723, (3S)-N-{4-[1-(3,3-dimethylbutanoyl)piperidin-4-yl]phenyl}-1-(pyridazin-3-yl)pyrrolidine-3-carboxamide]"
9,2.7,"O=C(Nc1ccc(C2CCN(C(=O)Cc3cccc(Cl)c3)CC2)cc1)C1CN(c2cccnn2)C1 [Example 404, N-(4-{1-[(3-chlorophenyl)acetyl]piperidin-4-yl}phenyl)-1-(pyridazin-3-yl)azetidine-3-carboxamide]"
10,2.63,"O=C(Nc1ccc(C2CCN(C(=O)c3cccc(F)c3)CC2)cc1)C1CN(c2ccnnc2)C1 [Example 554, N-{4-[1-(3-fluorobenzoyl)piperidin-4-yl]phenyl}-1-(pyridazin-4-yl)azetidine-3-carboxamide]"
11,1.98,"O=C(Nc1ccc(C2CCN(C(=O)c3ccccc3)CC2)cc1F)C1CN(c2ccnnc2)C1 [Example 869, N-[4-(1-benzoylpiperidin-4-yl)-2-fluorophenyl]-1-(pyridazin-4-yl)azetidine-3-carboxamide]"
12,1.01,"CO[C@@H](C(=O)N1CCC(c2ccc(NC(=O)C3CN(c4cccnn4)C3)cc2)CC1)c1ccccc1 [Example 407, N-(4-{1-[(2R)-2-methoxy-2-phenylacetyl]piperidin-4-yl}phenyl)-1-(pyridazin-3-yl)azetidine-3-carboxamide]"
13,0.826,"O=C(Nc1ccc(C2CCN(C(=O)c3ccccc3F)CC2)cc1F)C1CN(c2cccnn2)C1 [Example 828, N-{2-fluoro-4-[1-(2-fluorobenzoyl)piperidin-4-yl]phenyl}-1-(pyridazin-3-yl)azetidine-3-carboxamide]"
14,0.38,"O=C(Nc1ccc(C2CCN(C(=O)Cc3c(Cl)cccc3Cl)CC2)cc1)C1CN(c2cccnn2)C1 [Example 423, N-(4-{1-[(2,6-dichlorophenyl)acetyl]piperidin-4-yl}phenyl)-1-(pyridazin-3-yl)azetidine-3-carboxamide]"
15,0.23,"O=C(Nc1ccc(C2CCN(C(=O)C3CCCC3)CC2)cc1)C1CN(c2cccnc2)C1 [Example 138, N-{4-[1-(cyclopentylcarbonyl)piperidin-4-yl]phenyl}-1-(pyridin-3-yl)azetidine-3-carboxamide]"
